Measurements published in US4895842A, “Phenylalanine derivative and proteinase inhibitor” (Shosuke Okamoto, priority 1985, dated 1990).
pIC50: −log10 of the molar value. Counter-ions that a name gives are not always drawn.

Legend:
human plasma kallikrein = human plasma kallikrein (Homo sapiens, UniProt P03952); test: Anti-plasma kallikrein activity: inhibition of S-2302 decomposition; format: biochemical; details: Table 2; S-2302 substrate, pH 7.8, 37° C.; read-out: Plasma Kallikrein S-2302 (I50)
human plasma kallikrein, sequence (P03952 391-638 limits assumed): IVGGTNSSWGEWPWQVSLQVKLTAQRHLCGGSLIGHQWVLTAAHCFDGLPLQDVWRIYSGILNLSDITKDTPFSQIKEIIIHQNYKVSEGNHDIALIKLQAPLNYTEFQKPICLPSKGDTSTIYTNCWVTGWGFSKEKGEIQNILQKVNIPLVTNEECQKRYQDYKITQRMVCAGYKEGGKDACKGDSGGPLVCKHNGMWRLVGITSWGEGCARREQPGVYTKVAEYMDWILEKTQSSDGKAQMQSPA
human plasma kallikrein, sequence (P03952 20-390 partner limits assumed): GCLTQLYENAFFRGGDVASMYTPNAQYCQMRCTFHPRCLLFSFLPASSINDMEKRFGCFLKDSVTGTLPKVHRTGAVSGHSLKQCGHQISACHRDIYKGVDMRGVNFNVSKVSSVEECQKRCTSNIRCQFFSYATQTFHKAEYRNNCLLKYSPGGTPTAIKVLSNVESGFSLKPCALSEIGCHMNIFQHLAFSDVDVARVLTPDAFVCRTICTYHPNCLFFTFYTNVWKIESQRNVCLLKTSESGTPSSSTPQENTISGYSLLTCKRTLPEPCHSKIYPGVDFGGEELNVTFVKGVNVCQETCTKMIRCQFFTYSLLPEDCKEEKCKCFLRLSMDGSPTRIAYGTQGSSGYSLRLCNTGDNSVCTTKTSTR

bovine thrombin [1] = biological target: T1, bovine thrombin (Bos taurus, UniProt P00735); test: Antithrombin activity: inhibition of fibrin formation from fibrinogen; format: biochemical
Method: (i) Determination of inhibition activity against fibrin formation
An inhibitor sample is dissolved in a 0.18M borate-physiological salt buffer solution (pH=7.4) to make the total volume to 500 μl. To this solution, 400 μl of a 0.2% bovine fibrinogen solution and 100 μl of a 4 unit/ml bovine thrombin solution are added at a temperature of 37° C. in a constant temperature bath. Thus, a coagulation time is determined. The inhibitor concentration I50 (μmol), at which the coagulation time obtained in the absence of the inhibitor is extended twice, is determined.

bovine trypsin = biological target: T2, bovine trypsin (Bos taurus, UniProt P00760); test: Antitrypsin activity: inhibition of S-2238 decomposition; format: biochemical; details: Table 2; S-2238 substrate, pH 8.1, 37° C.; read-out: Trypsin S-2238 (I50)
T2 sequence (P00760 24-246): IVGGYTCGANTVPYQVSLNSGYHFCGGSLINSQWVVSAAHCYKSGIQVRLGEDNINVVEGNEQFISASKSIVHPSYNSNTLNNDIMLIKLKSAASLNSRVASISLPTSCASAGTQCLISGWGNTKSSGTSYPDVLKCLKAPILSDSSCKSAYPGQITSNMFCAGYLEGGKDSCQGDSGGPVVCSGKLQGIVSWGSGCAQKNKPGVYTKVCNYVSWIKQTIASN
Method: Determination of inhibition activity against S-2238 decomposition
An inhibitor sample is dissolved in a 0.05M Tris-imidazole buffer solution (pH=8.1) and 125 μl of a 1 mM S-2238 solution is added to make the total volume to 1.20 ml. The mixture is incubated at a temperature of 37° C. for 5 minutes in a constant temperature bath. To this mixture, 0.05 ml of bovine trypsin is added and the absorbance, at 405 nm, of the p-nitroaniline formed per minute is determined at a temperature of 37° C. by using the so-called initial velocity method. Thus, the concentration I50 (μmol) of the inhibitor sample, at which the absorbance is one half (i.e., 1/2) of that obtained in the absence of the inhibitor sample, is determined.

human urokinase = human urokinase (Homo sapiens, UniProt P00749); test: biochemical; details: Table 2; S-2444 substrate, pH 8.8, 37° C.; read-out: Urokinase S-2444 (I50)
Method: Determination of inhibition activity for S-2444 decomposition
An inhibitor sample is dissolved in a 0.05M Tris-hydrochloric acid buffer solution (pH=8.8) to make the total volume to 400 μl. To this solution, 50 μl of a 1 mM S-2444 solution is added and the mixture is incubated at a temperature of 37° C. for 5 minutes in a constant temperature bath. Then, 50 μl of a 500 unit/ml human urokinase is added and the mixture is incubated at a temperature of 37° C. for 5 minutes. Thereafter, 50 μl of 50% acetic acid is added to terminate the reaction. The absorbance of the p-nitroaniline formed in the reaction mixture is measured at 405 nm. Thus, the concentration I50 (μmol) of the inhibitor sample, at which the absorbance is one half (i.e., 1/2) of that obtained in the absence of the inhibitor sample, is determined.

bovine thrombin [2] = biological target: T1, bovine thrombin; test: Antithrombin activity: inhibition of S-2238 decomposition; format: biochemical; details: Table 2; S-2238 substrate, pH 8.3, 37° C.; read-out: Thrombin S-2238 (I50)
Method: (ii) Determination of inhibition activity for S-2238 decomposition
An inhibitor sample is dissolved in a 0.05M Tris-hydrochloric acid buffer solution (pH=8.3) to make a total volume of 400 μl. To this solution, 50 μl of a 0.2 mM S-2238 solution is added and the mixture is incubated at a temperature of 37° C. for 5 minutes in a constant temperature bath. Then, 50 μl of a 0.2 unit/ml bovine thrombin solution is added thereto and the absorbance, at 405 nm, of the p-nitroaniline formed per minute is determined at a temperature of 37° C. by using the so-called initial velocity method. Thus, the concentration I50 (μmol) of the inhibitor sample at which the absorbance is one half (i.e., 1/2) of that obtained in the absence of the inhibitor sample, is determined.

human plasmin [3] = biological target: T3, human plasmin (Homo sapiens, UniProt P00747); test: Antiplasmin activity: inhibition of fibrin decomposition; format: biochemical; details: Table 2; concentration at which fibrin dissolution time is extended twice, pH 7.4, 37° C.; read-out: Plasmin Fibrin (I50)
T3 sequence (P00747 581-810 limits assumed): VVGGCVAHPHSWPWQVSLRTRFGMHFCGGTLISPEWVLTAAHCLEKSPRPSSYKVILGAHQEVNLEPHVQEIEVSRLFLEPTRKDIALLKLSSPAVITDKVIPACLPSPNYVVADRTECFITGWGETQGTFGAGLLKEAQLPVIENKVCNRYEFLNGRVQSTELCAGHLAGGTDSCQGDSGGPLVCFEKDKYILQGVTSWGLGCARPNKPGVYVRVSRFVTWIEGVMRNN
T3 sequence (P00747 97-580 partner limits assumed): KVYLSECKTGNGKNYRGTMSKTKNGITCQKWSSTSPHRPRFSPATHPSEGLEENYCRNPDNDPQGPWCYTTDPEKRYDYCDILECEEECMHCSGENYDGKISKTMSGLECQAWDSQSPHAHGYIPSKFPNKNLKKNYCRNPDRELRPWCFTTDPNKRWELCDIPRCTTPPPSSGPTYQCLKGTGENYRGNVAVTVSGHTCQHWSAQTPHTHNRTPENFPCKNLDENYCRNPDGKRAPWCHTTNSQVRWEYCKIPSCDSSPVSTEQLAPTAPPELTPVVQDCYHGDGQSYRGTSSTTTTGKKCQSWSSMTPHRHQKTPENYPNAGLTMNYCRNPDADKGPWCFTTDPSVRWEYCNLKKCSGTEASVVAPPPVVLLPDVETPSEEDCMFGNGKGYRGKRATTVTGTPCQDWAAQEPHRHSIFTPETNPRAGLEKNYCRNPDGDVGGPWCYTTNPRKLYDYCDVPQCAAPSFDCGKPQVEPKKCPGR
Method: (i) Determination of inhibition activity for fibrin decomposition
An inhibitor sample is dissolved in a 0.18M borate-physiological salt buffer solution (pH=7.4) to make the total volume to 600 μl. To this buffer solution, 200 μl of a 0.2% bovine fibrinogen, 100 μl of a 0.3 casein unit/ml human plasmin solution, and 100 μl of a 50 unit/ml bovine thrombin solution, all dissolved in the above-mentioned buffer, are added at a temperature of 37° C. in a constant temperature bath. Then, the dissolution time of the fibrin mass formed above is determined.

human plasmin [4] = biological target: T3, human plasmin; test: biochemical; details: read-out: Plasmin S-2251 (I50)
Method: An inhibitor sample is dissolved in a 0.05M Tris-hydrochloric acid buffer solution (pH=7.4) to make the total volume of 400 μl. […] Then, 50 μl of a 0.2 casein unit/ml human plasmin is added and the mixture is incubated at a temperature of 37° C. for 4 minutes. Thereafter, the reaction is stopped by adding 50 μl of 50% acetic acid.
Thus, the concentration I50 (μmol) of the inhibitor sample, at which the absorbance is one half (i.e., 1/2) of that obtained in the absence of the inhibitor, is determined.

[5] = read-out: Thrombin Fibrinogen (I50), Table 2, concentration at which coagulation time of bovine fibrinogen is extended twice, pH 7.4, 37° C.
[6] = Table 2, 50% inhibition concentration, S-2251 substrate, pH 7.4, 37° C.

| SMILES | pIC50 (human plasma kallikrein) | pIC50 (bovine thrombin [1]; [5]) | pIC50 (bovine trypsin) | pIC50 (human urokinase) | pIC50 (bovine thrombin [2]) | pIC50 (human plasmin [3]) | pIC50 (human plasmin [4]; [6]) | pIC50 (bovine thrombin [1]) | pIC50 (human plasmin [4]) |
| --- | --- | --- | --- | --- | --- | --- | --- | --- | --- |
| CCOC(=O)C1CCCC(NC(=O)[C@H](Cc2ccc(OCc3cccc(Cl)c3)cc2)NC(=O)[C@H]2CC[C@H](CN)CC2)C1 (stereo partly shown) [compound 70] | 5.21 | < 4.30 | 5.89 | 4.09 | 3.77 | 6.20 | 5.77 |  |  |
| CC(=O)c1ccc(NC(=O)[C@H](Cc2ccc(OCc3cccc(C(F)(F)F)c3)cc2)NC(=O)[C@H]2CC[C@H](CN)CC2)cc1 [compound 55] | 6.38 |  | 5.59 | 4.24 | < 3.90 | 6.54 |  | < 4.30 | 5.92 |
| CC(=O)c1ccc(NC(=O)[C@H](Cc2ccc(Oc3ccc([N+](=O)[O-])cc3)cc2)NC(=O)[C@H]2CC[C@H](CN)CC2)cc1 [Compound No. 95, N-(trans-4-aminomethylcyclohexylcarbonyl)-4-(4-nitrophenoxy)-L-phenylalanine 4-acetylanilide hydrochloride] | 6.85 |  | 5.82 | 5.10 | < 3.40 | 6.57 |  | < 4.00 | 6.20 |
| CSc1ccc(NC(=O)[C@H](Cc2ccc(OCc3ccccc3)cc2)NC(=O)[C@H]2CC[C@H](CN)CC2)cc1 [compound 29] | 5.96 |  | 5.51 | 3.48 | < 4.30 | 6.46 |  | < 4.60 | 5.51 |
| C=CCOc1ccc(C[C@H](NC(=O)[C@H]2CC[C@H](CN)CC2)C(=O)Nc2ccc(C(C)=O)cc2)cc1 [compound 57] | 5.85 |  | 6.14 | 4.35 | 3.14 | 5.48 |  | < 3.30 | 5.34 |
| NCc1ccc(C(=O)N[C@@H](Cc2ccc(OCc3ccccc3)cc2)C(=O)NC2CC3CCC2C3)cc1 (stereo partly shown) [compound 62] | 5.08 |  | 5.62 | < 3.30 | < 3.70 | 6.24 |  | < 4.00 | 5.74 |
| NCc1ccc(C(=O)N[C@@H](Cc2ccc(OCc3ccccc3)cc2)C(=O)NCc2ccncc2)cc1 [Compound No. 96, N-(4-aminomethylbenzoyl)-4-benzyloxy-L-phenylalanine 4-picolylamide dihydrochloride] | 3.46 |  | 4.66 | < 3.30 | < 4.00 | 4.74 |  | < 3.60 | 4.54 |
| NCc1ccc(C(=O)N[C@@H](Cc2ccc(OCc3ccccc3)cc2)C(=O)NC2CCC(O)CC2)cc1 (stereo partly shown) [compound 88] | 3.92 |  | 4.28 | < 3.70 | < 3.70 | < 4.70 |  | < 4.70 | 4.48 |
| NCC1CCC(C(=O)NC(Cc2ccc(OCc3cccc(Cl)c3)cc2)C(=O)Nc2cccc(S(N)(=O)=O)c2)CC1 (stereo not shown) [compound 93] | 5.92 |  | 5.60 | 4.11 | < 3.70 | 6.49 |  | < 4.00 | 5.80 |
| CC(=O)c1ccc(NC(=O)[C@H](Cc2ccc(OCc3ccccc3Cl)cc2)NC(=O)[C@H]2CC[C@H](CN)CC2)cc1 [compound 83] | 6.29 |  | 5.82 | 4.24 | < 3.70 | 6.68 |  | < 4.30 | 6.05 |
| CC(=O)c1ccc(NC(=O)C(Cc2ccc(OCc3ccccc3)cc2)NC(=O)c2ccc(CN)cc2)cc1 (stereo not shown) [compound 118] | 5.43 |  | 5.52 | < 3.82 | < 4.30 | 6.11 |  | < 4.30 | 5.47 |
| CC(=O)c1ccc(NC(=O)[C@H](Cc2ccc(OCc3ccccc3)cc2)NC(=O)[C@H]2CC[C@H](CN)CC2)cc1 [Compound No. 3, N-(trans-4-aminomethylcyclohexylcarbonyl)-4-benzyloxy-L-phenylalanine 4-acetylanilide] | 6.20 |  | 6.11 | 4.51 | < 3.70 | 6.40 |  | < 4.00 | 5.74 |
| CC1CCC(NC(=O)[C@H](Cc2ccc(OCc3ccccc3)cc2)NC(=O)c2ccc(CN)cc2)CC1C (stereo partly drawn) [Compound No. 80, N-(4-aminomethylbenzoyl)-4-benzyloxy-L-phenylalanine 3,4-dimethylcyclohexylamide hydrochloride] | 4.77 |  | 6.35 | < 3.40 | < 4.00 | 6.48 |  | < 4.30 | 5.96 |
| CCOC(=O)C1CCCC(NC(=O)[C@H](Cc2ccc(OCc3ccc(F)cc3)cc2)NC(=O)c2ccc(CN)cc2)C1 (stereo partly shown) [compound 105] | 4.40 | < 4.30 | 5.60 | < 3.70 | < 4.30 | 5.59 | 5.38 |  |  |
| CC1CCC(NC(=O)C(Cc2ccc(Oc3ccc([N+](=O)[O-])cc3)cc2)NC(=O)c2ccc(CN)cc2)CC1C (stereo not shown) [compound 109] | 4.70 |  | 6.37 | < 3.70 | < 4.30 | 6.57 |  | < 4.40 | 6.24 |
| NC[C@H]1CC[C@H](C(=O)N[C@@H](Cc2ccc(OCc3ccccc3)cc2)C(=O)Nc2ccnc(Cl)c2)CC1 [Compound No. 59, N-(trans-4-aminomethylcyclohexylcarbonyl)-4-benzyloxy-L-phenylalanine 4-(2-chloro)pyridylamide hydrochloride] | 6.38 |  | 6.17 | 4.40 | < 3.90 | 6.74 |  | < 3.60 | 5.85 |
| CC1CCC(NC(=O)C(Cc2ccc(OCc3cccc(Cl)c3)cc2)NC(=O)C2CCC(CN)CC2)CC1C (stereo not shown) [compound 102] | 5.46 |  | 5.89 | 3.49 | < 3.40 | 6.80 |  | < 4.30 | 6.16 |
| NCc1ccc(C(=O)N[C@@H](Cc2ccccc2)C(=O)Nc2cccc(C(F)(F)F)c2)cc1 [compound 131] | 4.77 |  | 5.36 | < 3.60 | < 3.70 | 4.25 |  | < 3.30 | 3.77 |
| NC[C@H]1CC[C@H](C(=O)N[C@@H](Cc2ccc(OCc3cccc(Cl)c3)cc2)C(=O)Nc2ccnc(Cl)c2)CC1 [compound 128] | 6.36 |  | 5.89 | 4.09 | < 3.00 | 6.52 |  | < 4.00 | 5.85 |
